From patent US20140023611A1 (priority 2010, published 2014) come the findings set out here.

The target of this assay is T1, rat NaP2b (SLC34A2) (Rattus norvegicus, UniProt Q9JJ09).
T1 construct: host or cells: HEK293
T1 sequence (Q9JJ09 1-695): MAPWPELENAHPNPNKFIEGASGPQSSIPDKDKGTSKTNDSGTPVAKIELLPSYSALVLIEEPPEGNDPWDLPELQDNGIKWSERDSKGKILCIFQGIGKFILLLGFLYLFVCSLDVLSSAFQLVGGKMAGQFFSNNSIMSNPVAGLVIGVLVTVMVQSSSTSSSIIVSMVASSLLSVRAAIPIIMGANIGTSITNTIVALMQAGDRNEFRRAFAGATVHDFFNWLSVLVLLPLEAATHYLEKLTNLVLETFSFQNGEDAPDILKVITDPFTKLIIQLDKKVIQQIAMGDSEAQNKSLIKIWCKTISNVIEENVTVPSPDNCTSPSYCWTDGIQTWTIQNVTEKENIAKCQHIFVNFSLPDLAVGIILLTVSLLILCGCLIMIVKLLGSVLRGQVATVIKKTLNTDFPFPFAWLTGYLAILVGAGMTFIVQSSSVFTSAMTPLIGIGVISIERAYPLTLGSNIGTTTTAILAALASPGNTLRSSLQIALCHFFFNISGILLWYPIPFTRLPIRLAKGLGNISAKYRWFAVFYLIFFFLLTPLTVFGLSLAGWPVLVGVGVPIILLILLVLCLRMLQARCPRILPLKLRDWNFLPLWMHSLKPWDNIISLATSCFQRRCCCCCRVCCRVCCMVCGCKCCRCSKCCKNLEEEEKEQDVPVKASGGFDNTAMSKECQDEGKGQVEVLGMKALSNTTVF
Nature of the assay: Inhibition of NaP2b-mediated Pi (33P) uptake in transfected HEK293 cells, rat NaP2b. The class given is cell-based. Particulars: 33P Pi uptake, 0.1 mM phosphate, value given as pIC50 range. The method in brief: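 HEK293 cells were transiently transfected with NaP2b cDNA using Lipofectamine and grown near confluence. Compounds were tested at twelve concentrations from 0.1 nM to 30 uM in duplicate, and 33P-phosphate uptake was counted by scintillation after lysis. Results are expressed as pIC50.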
Regarding `O=C(O)c1cccc(Cn2ccnc2-c2cccc(C(=O)Nc3ccc(N4CCCCC4)cc3-c3cc(C(=O)NCc4cccc(C(F)(F)F)c4)ccn3)c2)c1` [Example 184, 3-((2-(3-(4-(piperidin-1-yl)-2-(4-(3-(trifluoromethyl)benzylcarbamoyl)pyridin-2-yl)phenylcarbamoyl)phenyl)-1H-imidazol-1-yl)methyl)benzoic acid], the IC50 is 1 to 7.94 µM.
`O=C(NCc1cccc(C(F)(F)F)c1)c1ccnc(-c2cc(N3CCCCC3)ccc2NC(=O)c2cccc(Cn3cc(CCO)nn3)c2)c1` [Example 75, 2-(2-(3-((4-(2-Hydroxyethyl)-1H-1,2,3-triazol-1-yl)methyl)benzamido)-5-(piperidin-1-yl)phenyl)-N-(3-(trifluoromethyl)benzyl)isonicotinamide] gave an IC50 of 10 to 31.6 µM.
As for `CCN(CC)c1ccc(NC(=O)c2cccc(C(=O)N(C)CCN(C)CCOCCOCCOCCNC(=O)C3CCOCC3)c2)c(-c2cc(C(=O)N[C@H]3CCCc4ccccc43)ccn2)c1` [Example 343, (S)—N^1-(4-(Diethylamino)-2-(4-(1,2,3,4-tetrahydronaphthalen-1-ylcarbamoyl)pyridin-2-yl)phenyl)-N^3-methyl-N^3-(14-methyl-1-oxo-1-(tetrahydro-2H-pyran-4-yl)-5,8,11-trioxa-2,14-diazahexadecan-16-yl)isophthalamide], the IC50 was 1 to 7.94 µM.
The figure for `CCN(CC)c1ccc(NC(=O)c2cccc(C(=O)N(C)CCN(C)CCOCCOCCOCCNC(=O)c3cccnc3)c2)c(-c2cc(C(=O)N[C@H]3CCCc4ccccc43)ccn2)c1` [Example 342, (S)—N^1-(4-(Diethylamino)-2-(4-(1,2,3,4-tetrahydronaphthalen-1-ylcarbamoyl)pyridin-2-yl)phenyl)-N^3-methyl-N^3-(14-methyl-1-oxo-1-(pyridin-3-yl)-5,8,11-trioxa-2,14-diazahexadecan-16-yl)isophthalamide] is 1 to 7.94 µM.
With `COCCNC(=O)CCN(C)C(=O)c1cccc(C(=O)Nc2ccc(N3CCCCC3)cc2-c2cc(C(=O)NCc3cccc(C(F)(F)F)c3)ccn2)c1` [Example 4.2, N1-(2-(4-((3-(Trifluoromethyl)benzyl)carbamoyl)pyridin-2-yl)-4-(piperidin-1-yl)phenyl)-N3-(3-(2-methoxyethylamino)-3-oxopropyl)-N3-methylisophthalamide] the figure was 1 to 7.94 µM; with `COc1ccc(CNC(=O)c2ccnc(-c3cc(N4CCCCC4)ccc3NC(=O)c3cccc(CSCCC(=O)O)c3)c2)cc1C(F)(F)F` [Example 1.27], 10 to 31.6 µM.
Take `CN(CCN1CCN(C(=O)OC(C)(C)C)CC1)Cc1cccc(C(=O)Nc2ccc(N3CCCCC3)cc2-c2cc(C(=O)NCc3cccc(C(F)(F)F)c3)ccn2)c1` [Example 38, Tert-butyl 4-(2-(methyl(3-((4-(piperidin-1-yl)-2-(4-((3-(trifluoromethyl)benzyl)-carbamoyl)pyridin-2-yl)phenyl)carbamoyl)benzyl)amino)ethyl)piperazine-1-carboxylate]: the IC50 was 10 to 31.6 µM.
In turn, `COCCNC(=O)C1CCCN(Cc2cccc(C(=O)Nc3ccc(N4CCCCC4)cc3-c3cc(C(=O)NCc4cccc(C(F)(F)F)c4)ccn3)c2)C1` (stereo in doubt) [Example 12.2, (R)-2-(2-(3-((3-((2-Methoxyethyl)carbamoyl)piperidin-1-yl)methyl)benzamido)-5-(piperidin-1-yl)phenyl)-N-(3-(trifluoromethyl)benzyl)isonicotinamide] had an IC50 of 10 to 31.6 µM.
`CCN(CC)c1ccc(NC(=O)c2cccc(C(=O)N(C)CCN(C)CCOCCOCCOCCNC(C)=O)c2)c(-c2cc(C(=O)N[C@H]3CCCc4ccccc43)ccn2)c1` [Example 341, (S)—N^1-(4-(Diethylamino)-2-(4-(1,2,3,4-tetrahydronaphthalen-1-ylcarbamoyl)pyridin-2-yl)phenyl)-N^3-methyl-N^3-(3-methyl-16-oxo-6,9,12-trioxa-3,15-diazaheptadecyl)isophthalamide] gave an IC50 of 1 to 7.94 µM.
Consider `CCN(CC)c1ccc(NC(=O)c2cccc(C(=O)N(C)CCN(C)CCOCCOCCOCCNC(=O)N(CCO)CCO)c2)c(-c2cc(C(=O)N[C@H]3CCCc4ccccc43)ccn2)c1` [Example 225, (S)—N1-(4-(diethylamino)-2-(4-(1,2,3,4-tetrahydronaphthalen-1-ylcarbamoyl)pyridin-2-yl)phenyl)-N3-(1-hydroxy-3-(2-hydroxyethyl)-17-methyl-4-oxo-8,11,14-trioxa-3,5,17-triazanonadecan-19-yl)-N3-methylisophthalamide], for which the IC50 was 10 to 31.6 µM.
Molecule `O=C(O)CCSCc1cccc(C(=O)Nc2ccc(N3CCCCC3)cc2-c2cc(C(=O)NCc3ccc4c(c3)CCO4)ccn2)c1` [Example 1.24] gave an IC50 of 1 to 7.94 µM.
The molecule `CN(Cc1cccc(C(=O)Nc2ccc(N3CCCCC3)cc2-c2cc(C(=O)NCc3cccc(C(F)(F)F)c3)ccn2)c1)C(=O)CN1CCOCC1` [Example 42, 2-(2-(3-((N-Methyl-2-morpholinoacetamido)methyl)benzamido)-5-(piperidin-1-yl)phenyl)-N-(3-(trifluoromethyl)benzyl)isonicotinamide] had an IC50 of 10 to 31.6 µM.
Molecule `O=C(NCc1cccc(C(F)(F)F)c1)c1ccnc(-c2cc(N3CCCCC3)ccc2NC(=O)c2cccc(CN3CCC(CO)CC3)c2)c1` [Example 8.27] showed an IC50 of 10 to 31.6 µM.
In turn, `O=C(O)CCCC1CCN(C(=O)CCCC2CCN(C(=O)c3cccc(C(=O)Nc4ccc(N5CCCCC5)cc4-c4cc(C(=O)NCc5cccc(C(F)(F)F)c5)ccn4)c3)CC2)CC1` [Example 113] had an IC50 of 1 to 7.94 µM.
`O=C(O)CCSCc1cccc(C(=O)Nc2ccc(N3CCCCC3)cc2-c2cc(C(=O)CCc3ccccc3)ccn2)c1` [Example 5.1, 3-((3-((2-(4-(3-Phenylpropanoyl)pyridin-2-yl)-4-(piperidin-1-yl)phenyl)carbamoyl)benzyl)thio)propanoic acid] gave an IC50 of 1 to 7.94 µM.
With `CC(=O)N[C@H]1CCN(C(=O)c2cccc(C(=O)Nc3ccc(N4CCCCC4)cc3-c3cc(C(=O)NCc4cccc(C(F)(F)F)c4)ccn3)c2)C1` [Example 4.9, (S)-2-(2-(3-(3-Acetamidopyrrolidine-1-carbonyl)benzamido)-5-(piperidin-1-yl)phenyl)-N-(3-(trifluoromethyl)benzyl)isonicotinamide], the IC50 was 10 to 31.6 µM.
With `CN(C)c1ccc(NC(=O)c2cccc(CSCCC(=O)O)c2)c(-c2cc(C(=O)NCc3cccc(C(F)(F)F)c3)ccn2)c1` [Example 120] the figure was 1 to 7.94 µM; with `CN1CCN(C(=O)c2cccc(SCc3cccc(C(=O)Nc4ccc(N5CCCCC5)cc4-c4cc(C(=O)NCc5cccc(C(F)(F)F)c5)ccn4)c3)c2)CC1` [Example 10.3], 10 to 31.6 µM; with `CN1CCN(CCN(C)Cc2cccc(C(=O)Nc3ccc(N4CCCCC4)cc3-c3cc(C(=O)NCc4cccc(C(F)(F)F)c4)ccn3)n2)CC1` [Example 61, 6-((Methyl(2-(4-methylpiperazin-1-yl)ethyl)amino)methyl)-N-(4-(piperidin-1-yl)-2-(4-((3-(trifluoromethyl)benzyl)carbamoyl)pyridin-2-yl)phenyl)picolinamide], 10 to 31.6 µM.
With `CN(C)c1ccc(CNC(=O)c2ccnc(-c3cc(N4CCCCC4)ccc3NC(=O)c3cccc(CSCCC(=O)O)c3)c2)cc1` [Example 1.10] the figure was 1 to 7.94 µM; with `CC(=O)N1CCCN(C(=O)c2cccc(C(=O)Nc3ccc(N4CCCCC4)cc3-c3cc(C(=O)NCc4cccc(C(F)(F)F)c4)ccn3)c2)CC1` [Example 4.13, 2-(2-(3-(4-Acetyl-1,4-diazepane-1-carbonyl)benzamido)-5-(piperidin-1-yl)phenyl)-N-(3-(trifluoromethyl)benzyl)isonicotinamide], 1 to 7.94 µM.
Molecule `CN(CCN1CCN(C(=O)OC(C)(C)C)CC1)C(=O)c1cccc(C(=O)Nc2ccc(N3CCCCC3)cc2-c2cc(C(=O)NCc3cccc(C(F)(F)F)c3)ccn2)c1` [Example 4.5, Tert-butyl 4-(2-(N-methyl-3-((4-(piperidin-1-yl)-2-(4-((3-(trifluoromethyl)benzyl)carbamoyl)pyridin-2-yl)phenyl)carbamoyl)benzamido)ethyl)piperazine-1-carboxylate] had an IC50 of 1 to 7.94 µM.
On to `O=C(NCc1cccc(C(F)(F)F)c1)c1ccnc(-c2cc(N3CCCCC3)ccc2NC(=O)c2cccc(C(=O)N3CCC(CO)CC3)c2)c1` [Example 4.30], for which the IC50 was 1 to 7.94 µM.
`O=C(NCc1cccc(C(F)(F)F)c1)c1ccnc(-c2cc(N3CCCCC3)ccc2NC(=O)c2cccc(C(=O)N3CCC(CCO)CC3)c2)c1` [Example 4.29] gave an IC50 of 1 to 7.94 µM.
On to `CCN(CC)c1ccc(NC(=O)c2cccc(C(=O)N(C)CCO)c2)c(-c2cc(C(=O)N[C@H]3CCCc4ccccc43)ccn2)c1` [Example 194, (S)—N^1-(4-(diethylamino)-2-(4-((1,2,3,4-tetrahydronaphthalen-1-yl)carbamoyl)pyridin-2-yl)phenyl)-N^3-(2-hydroxyethyl)-N^3-methylisophthalamide], for which the IC50 was under 1 µM.
In turn, `CN(CCN1CCOCC1)C(=O)c1cccc(C(=O)Nc2ccc(N3CCCCC3)cc2-c2cc(C(F)(F)CCc3cccc(C(F)(F)F)c3)ccn2)c1` [Example 106] gave an IC50 of 10 to 31.6 µM.
